“And” between values parts separate entries of the source, which are not always exact repeats. Equal values may be shown once. Read-outs that look alike come from different tables or passages of the source.
What was measured:
[1] = Pharmacokinetics study in male cynomolgus monkeys (Test Example 1); assay type: in vivo; conditions: cynomolgus monkey, plasma, po, 300 mg/animal, after Formulation 2 (2 tablets, 300 mg/animal) PO, mean ± SD; for AUC(0-inf): n = 8, read-out: AUC(0-∞) of SNAC in plasma; for Cmax: n = 8, read-out: Cmax of SNAC in plasma; for half-life: n = 8, read-out: T1/2 of SNAC in plasma (converted); for Tmax: n = 8, read-out: Tmax of SNAC in plasma; for AUC(0-t): t = 24 h, n = 8, read-out: AUC(0-t) of SNAC in plasma
Description: Eight male cynomolgus monkeys were administered by single oral gavage, including 4 cycles, 5 days per cycle, 20 days in total (see Table 4 for the protocol).
The animals in cycle I and II were fasted before administration, while the animals in cycle III and IV were given high-fat food before administration. Animals in cycle I and III were given 300 mg of Formulation 2 (2 tablets of abiraterone acetate, T, comprising 300 mg of abiraterone), while animals in cycle II and IV were given 1000 mg of reference preparation (4 tablets of abiraterone acetate Zytiga®, R). Blood samples were collected before administration or at 0.25, 0.5, 1, 1.5, 2, 2.5, 3, 4, 8, 12 and 24 hours after administration. The validated LC-MS/MS method was used to determine the concentrations of abiraterone and SNAC in plasma samples. Only abiraterone was detected for those given reference preparation, while abiraterone and SNAC were both detected for those given test formulations. The main pharmacokinetic parameters were calculated according to the concentrations of abiraterone and SNAC in plasma using Phoenix WinNonlin® 7.0 software. The main pharmacokinetic data of abiraterone in plasma in cycles I-IV are shown in Table 5, and the main pharmacokinetic data of SNAC in plasma in cycles I and III are shown in Table 6.

[2] = In vivo pharmacokinetics study in healthy subjects, 75-450 mg single dose, fasting (Test Example 2); parameters: species or system human (healthy male subjects); conditions: for CLz/F of SNAC / t1/2z of SNAC / λz of SNAC / AUC—% Extrap of SNAC / MRT last / MRT inf / AUC(0-inf) / Cmax / AUC(0-t) / Vd/F / Tmax: single oral, fasting, healthy male subjects; for CLz/F of SNAC / t1/2z of SNAC / λz of SNAC / AUC—% Extrap of SNAC / MRT last / MRT inf / AUC(0-inf) / Cmax / AUC(0-t) / Vd/F: Mean ± SD; for MRT last / MRT inf / AUC(0-inf) / Cmax / AUC(0-t) / Vd/F / Tmax: human; for MRT last: read-out: MRT0-t of SNAC; for MRT inf: read-out: MRT0-∞ of SNAC; for AUC(0-inf): read-out: AUC0-∞ of SNAC; for AUC(0-t): read-out: AUC0-t of SNAC; for Vd/F: read-out: Vz/F of SNAC; for Tmax: median
Description: To study the pharmacokinetic characteristics of 75 mg, 150 mg, 300 mg and 450 mg doses of abiraterone acetate tablets in healthy subjects after a single oral administration under fasting state.
A single-center, open-label, sequential trial design was applied. A total of 16 healthy male subjects were planned to be enrolled in the study, who entered the four dose groups sequentially and the washout period of each dose group was seven days. Blood samples were collected at a series of time points, and safety test was performed. The blood concentration of abiraterone at different time points after dosing was determined by HPLC-MS/MS. Pharmacokinetic parameters were calculated using non-compartmental model and statistically analyzed.
The subjects were admitted to the ward before dinner on the day before the administration of each studied dose. […] They were fasting for at least 10 hours before dosing. According to the trial protocol, subjects were given a single oral administration of the investigational drug, abiraterone acetate tablets, 75 mg (split 150 mg tablet along the score line into half a tablet), 150 mg (150 mg×1 tablet), 300 mg (150 mg×2 tablets) and 450 mg (150 mg×3 tablets) with 240 mL water under fasting state in the morning on the day of trial of each dose group. Liquid was prohibited before administration and within 1 h after administration, and standard lunch and dinner (a standardized light diet) were taken about 4 and 10 h after administration.
Test Formulation (T): Abiraterone acetate tablets (Formulation 5), specification: 150 mg.
PKPS (PKPS, all enrolled in the group and receiving the study drug, at least one subject with analyzable PK parameters during the trial) was used for the statistical analysis of pharmacokinetic parameters.
The linearity between AUC and Cmax and the administration dose was analyzed by confidence interval method, and linear regression analysis was performed on the AUC and Cmax after natural logarithmic transformation respectively and the administration dose, to observe the slope of the linear regression equation and 90% confidence interval.

[3] = as above; parameters: species or system human (healthy male subjects); conditions: single oral, healthy male subjects
[4] = stated without source; cited from earlier work
[5] = after Formulation 5, dose group A 75 mg (equal SNAC content), N = 16
[6] = after Formulation 5, dose group B 150 mg (equal SNAC content), N = 15
[7] = after Formulation 5, dose group C 300 mg (equal SNAC content), N = 15
[8] = after Formulation 5, dose group D 450 mg (equal SNAC content), N = 15
[9] = dose range 75-450 mg of test formulation, confidence interval method, N = 16
[10] = blood, after Formulation 5, dose group A 75 mg (equal SNAC content), N = 16
[11] = blood, after Formulation 5, dose group B 150 mg (equal SNAC content), N = 15
[12] = blood, after Formulation 5, dose group C 300 mg (equal SNAC content), N = 15
[13] = blood, after Formulation 5, dose group D 450 mg (equal SNAC content), N = 15
[14] = plasma, after Formulation 5, dose group A 75 mg (equal SNAC content), N = 16
[15] = plasma, after Formulation 5, dose group B 150 mg (equal SNAC content), N = 15
[16] = plasma, after Formulation 5, dose group C 300 mg (equal SNAC content), N = 15
[17] = plasma, after Formulation 5, dose group D 450 mg (equal SNAC content), N = 15

In the case of `O=C([O-])CCCCCCCNC(=O)c1ccccc1O.[Na+]` [SNAC, sodium 8-(salicylamido)caprylate], the AUC(0-inf) ([1]; fasting) is reported as 40900 ± 10600 ng·h/mL, the Cmax ([1]; fasting) is reported as 34200 ± 18000 ng/mL and the half-life ([1]; fasting) is reported as 3.16 ± 0.93 h. For the same compound, the Tmax ([1]; fasting) was 0.72 ± 0.49 h, the AUC(0-inf) ([1]; high fat diet) was 18700 ± 5620 ng·h/mL and the Cmax ([1]; high fat diet) was 4660 ± 2400 ng/mL. It also gave a half-life ([1]; high fat diet) of 2.71 ± 0.74 h, a Tmax ([1]; high fat diet) of 2.88 ± 0.74 h and an AUC(0-t) ([1]; fasting) of 40300 ± 10400 ng·h/mL. The AUC(0-t) ([1]; high fat diet) was 18400 ± 5740 ng·h/mL, the “CLz/F of SNAC” value [2, 5] was 2.66 ×10^2 L · h^−1 and 2.66 ± 0.64 ×10^2 L · h^−1 and the “t1/2z of SNAC” value [2, 5] was 3.53 h and 3.53 ± 2.54 h. For the same compound, the “λz of SNAC” value [2, 5] was 0.28 ± 0.14 h⁻¹, the “AUC—% Extrap of SNAC” value [2, 6] was 0.63 ± 0.62% and the “CLz/F of SNAC” value [2, 6] was 2.36 ×10^2 L · h^−1 and 2.36 ± 0.62 ×10^2 L · h^−1. For the same compound, the “t1/2z of SNAC” value [2, 6] was 2.94 h and 2.94 ± 1.39 h, the “λz of SNAC” value [2, 6] was 0.29 ± 0.14 h⁻¹ and the “AUC—% Extrap of SNAC” value [2, 7] was 0.95 ± 0.91%. The “CLz/F of SNAC” value [2, 7] was 2.22 ×10^2 L · h^−1 and 2.22 ± 0.51 ×10^2 L · h^−1, the “t1/2z of SNAC” value [2, 7] was 5.35 h and 5.35 ± 3.92 h and the “λz of SNAC” value [2, 7] was 0.19 ± 0.11 h⁻¹. The “AUC—% Extrap of SNAC” value [2, 8] was 0.50 ± 0.44%, the “CLz/F of SNAC” value [2, 8] was 2.22 ×10^2 L · h^−1 and 2.22 ± 0.51 ×10^2 L · h^−1 and the “t1/2z of SNAC” value [2, 8] was 4.88 h and 4.88 ± 2.37 h. The “λz of SNAC” value [2, 8] was 0.18 ± 0.09 h⁻¹, the “Slope of the linear regression equation (β), LnAUC0-t of SNAC vs dose” value [2, 9] was 1.10 and the “Slope of the linear regression equation (β), LnAUC0-∞ of SNAC vs dose” value [2, 9] was 1.10. The “Slope of the linear regression equation (β), LnCmax of SNAC vs dose” value [2, 9] was 1.00, the MRT last [2, 10] was 1.32 ± 0.52 h and the MRT inf [2, 10] was 1.58 ± 0.76 h. For the same compound, the MRT last [2, 11] was 1.21 ± 0.48 h, the MRT inf [2, 11] was 1.32 ± 0.5 h and the MRT last [2, 12] was 1.28 ± 0.36 h. For the same compound, the MRT inf [2, 12] was 1.55 ± 0.54 h, the AUC(0-inf) [2, 13] was 2130 ± 491 ng·h/mL and the MRT last [2, 13] was 1.4 ± 0.53 h. For the same compound, the MRT inf [2, 13] was 1.53 ± 0.51 h, the Cmax [2, 14] was 407 ng/mL and the AUC(0-t) [2, 14] was 291 ng·h/mL. It also gave an AUC(0-inf) [2, 14] of 295 ± 61.4 ng·h/mL, a Vd/F [2, 14] of 1280 L and a Cmax [2, 15] of 977 ng/mL. The AUC(0-t) [2, 15] was 668 ng·h/mL, the AUC(0-inf) [2, 15] was 672 ± 152 ng·h/mL and the Vd/F [2, 15] was 1010 L. For the same compound, the Tmax [2, 15] was 0.5 h, the Cmax [2, 16] was 1870 ng/mL and the AUC(0-inf) [2, 16] was 1410 ± 285 ng·h/mL. The Vd/F [2, 16] was 1740 L, the Tmax [2, 16] was 0.5 h and the Cmax [2, 17] was 2460 ng/mL. For the same compound, the AUC(0-t) [2, 17] was 2120 ng·h/mL, the Vd/F [2, 17] was 1520 L and the Tmax [2, 17] was 0.5 h. The “AUC—% Extrap of SNAC” value ([3]; after Formulation 5, dose group A 75 mg (equal SNAC content), N = 16, Mean ± SD) was 1.23 ± 1.12%, the Tmax ([3]; human, plasma, after Formulation 5, dose group A 75 mg (equal SNAC content), N = 16, median) was 0.38 h and the AUC(0-t) ([3]; human, plasma, after Formulation 5, dose group C 300 mg (equal SNAC content), N = 15, Mean ± SD, read-out: AUC0-t of SNAC) was 1400 ng·h/mL. The PKA [4] was 5.0.

From patent US11801252B2, “Pharmaceutical composition” (Jiangsu Hengrui Medicine Co., Ltd., priority 2021, dated 2023)
